The source made the active and inactive calls. The rule behind the calls is not given here.
Legend:
[1] = Cytotoxicity against human HL60/ADR cells after 72 hrs by MTT assay; assay type: functional, cell-based
HL-60 = experiment: Selectivity index, ratio IC50 for human […] cells; assay type: functional
[2] = Cytotoxicity against human K562/A02 cells after 72 hrs by MTT assay; assay type: functional, cell-based; conditions: K562/A02, 72 h
[3] = Cytotoxicity against human KG1a cells after 72 hrs by MTT assay; assay type: functional, cell-based; conditions: KG-1a
[4] = Cytotoxicity against human HL60 cells after 72 hrs by MTT assay; assay type: functional, cell-based; conditions: HL-60, 72 h
[5] = Selectivity index, ratio IC50 for human KG1a cells to IC50 for human HL60 cells; assay type: functional
[6] = Cytotoxicity against human AML cells assessed as cell viability at 10 uM after 18 hrs by annexin staining based assay; assay type: functional; conditions: read-out: Activity
KG-1a [7] = experiment: Induction of apoptosis in human KG1a cells assessed as viable cells at 50 uM after 24 hrs by Annexin V-FITC/PI staining based flow cytometry (Rvb=95.1%); assay type: functional; conditions: read-out: Activity
[8] = Cytotoxicity against human CD34-positive leukemia stem/progenitor AML cells assessed as cell viability at 5 uM after 18 hrs by annexin staining based assay; assay type: functional; conditions: read-out: Activity
KG-1a [9] = experiment: Induction of apoptosis in human KG1a cells assessed as early apoptotic cells at 5 uM after 24 hrs by Annexin V-FITC/PI staining based flow cytometry (Rvb=2.40%); assay type: functional
KG-1a [10] = experiment: Induction of apoptosis in human KG1a cells assessed as late apoptotic cells at 5 uM after 24 hrs by Annexin V-FITC/PI staining based flow cytometry (Rvb=2.30%); assay type: functional
[11] = Induction of apoptosis in human KG1a cells assessed as upregulation of PARP cleavage at 2.5 to 10 uM after 24 hrs by Western blot analysis; assay type: functional, cell-based; conditions: KG-1a
KG-1a [12] = experiment: Induction of apoptosis in human KG1a cells assessed as viable cells at 10 uM after 24 hrs by Annexin V-FITC/PI staining based flow cytometry (Rvb=95.1%); assay type: functional; conditions: read-out: Activity
KG-1a [13] = experiment: Induction of apoptosis in human KG1a cells assessed as necrotic cells at 50 uM after 24 hrs by Annexin V-FITC/PI staining based flow cytometry (Rvb=0.227%); assay type: functional
[14] = Cytotoxicity against human hematopoietic stem cells after 24 hrs by MTT assay; assay type: cell-based
[15] = Cytotoxicity against human CD38 deficient CD34-positive leukemia stem/progenitor AML cells assessed as cell viability at 10 uM after 18 hrs by annexin staining based assay; assay type: functional; conditions: read-out: Activity
KG-1a [16] = experiment: Induction of apoptosis in human KG1a cells assessed as late apoptotic cells at 20 uM after 24 hrs by Annexin V-FITC/PI staining based flow cytometry (Rvb=2.30%); assay type: functional
KG-1a [17] = experiment: Induction of apoptosis in human KG1a cells assessed as viable cells at 5 uM after 24 hrs by Annexin V-FITC/PI staining based flow cytometry (Rvb=95.1%); assay type: functional; conditions: read-out: Activity
[18] = Cytotoxicity against human CD38 deficient CD34-positive leukemia stem/progenitor AML cells assessed as cell viability at 5 uM after 18 hrs by annexin staining based assay; assay type: functional; conditions: read-out: Activity
KG-1a [19] = experiment: Induction of apoptosis in human KG1a cells assessed as necrotic cells at 10 uM after 24 hrs by Annexin V-FITC/PI staining based flow cytometry (Rvb=0.227%); assay type: functional
[20] = Aqueous solubility of compound; assay type: physicochemical; conditions: buffer
[21] = Cytotoxicity against human CD34-positive leukemia stem/progenitor AML cells assessed as cell viability at 10 uM after 18 hrs by annexin staining based assay; assay type: functional; conditions: read-out: Activity
KG-1a [22] = experiment: Induction of apoptosis in human KG1a cells assessed as late apoptotic cells at 50 uM after 24 hrs by Annexin V-FITC/PI staining based flow cytometry (Rvb=2.30%); assay type: functional
[23] = Induction of apoptosis in human KG1a cells assessed as upregulation of caspase 3 cleavage at 2.5 to 10 uM after 24 hrs by Western blot analysis; assay type: functional, cell-based; conditions: KG-1a
KG-1a [24] = experiment: Induction of apoptosis in human KG1a cells assessed as early apoptotic cells at 20 uM after 24 hrs by Annexin V-FITC/PI staining based flow cytometry (Rvb=2.40%); assay type: functional
KG-1a [25] = experiment: Induction of apoptosis in human KG1a cells assessed as necrotic cells at 5 uM after 24 hrs by Annexin V-FITC/PI staining based flow cytometry (Rvb=0.227%); assay type: functional
K562 = experiment: Cytotoxicity against human K562 cells after 72 hrs by MTT assay; assay type: functional, cell-based; conditions: K562, 72 h
KG-1a [26] = experiment: Induction of apoptosis in human KG1a cells assessed as necrotic cells at 20 uM after 24 hrs by Annexin V-FITC/PI staining based flow cytometry (Rvb=0.227%); assay type: functional
[27] = Cytotoxicity against human AML cells assessed as cell viability at 5 uM after 18 hrs by annexin staining based assay; assay type: functional; conditions: read-out: Activity
KG-1a [28] = experiment: Induction of apoptosis in human KG1a cells assessed as late apoptotic cells at 10 uM after 24 hrs by Annexin V-FITC/PI staining based flow cytometry (Rvb=2.30%); assay type: functional
KG-1a [29] = experiment: Induction of apoptosis in human KG1a cells assessed as early apoptotic cells at 50 uM after 24 hrs by Annexin V-FITC/PI staining based flow cytometry (Rvb=2.40%); assay type: functional
KG-1a [30] = experiment: Induction of apoptosis in human KG1a cells assessed as viable cells at 20 uM after 24 hrs by Annexin V-FITC/PI staining based flow cytometry (Rvb=95.1%); assay type: functional; conditions: read-out: Activity
[31] = Induction of apoptosis in human KG1a cells assessed as upregulation of caspase 9 cleavage at 2.5 to 10 uM after 24 hrs by Western blot analysis; assay type: functional, cell-based; conditions: KG-1a
KG-1a [32] = experiment: Induction of apoptosis in human KG1a cells assessed as early apoptotic cells at 10 uM after 24 hrs by Annexin V-FITC/PI staining based flow cytometry (Rvb=2.40%); assay type: functional
[33] = Induction of apoptosis in human KG1a cells assessed as upregulation of Bax expression at 2.5 to 10 uM after 24 hrs by Western blot analysis; assay type: functional, cell-based; conditions: KG-1a
KG-1a [34] = experiment: Antitumor activity against human KG1a cells xenografted in SCID mice assessed as inhibition of tumor growth at 50 mg/kg, po administered every other day for 7 times; assay type: functional, organism-based
Mus musculus = experiment: Toxicity in SCID mouse xenografted with KG1a cells assessed as effect on body weight at 50 mg/kg, po administered every other day for 7 times; assay type: organism-based; conditions: in vivo
KG-1a [35] = experiment: Antitumor activity against human KG1a cells xenografted in SCID mice assessed as reduction in tumor weight at 50 mg/kg, po administered every other day for 7 times measured after 1 month; assay type: functional, organism-based

COc1cccc2c1C(=O)c1c(O)c3c(c(O)c1C2=O)C[C@@](O)(C(=O)CO)C[C@@H]3O[C@H]1C[C@H](N)[C@H](O)[C@H](C)O1.Cl [DOXORUBICIN HYDROCHLORIDE]
IC50 [1]: 4.89 µM
Ratio IC50 (HL-60): 300
IC50 [2]: 10.6 µM
IC50 [3]: 0.82 µM
IC50 [4]: 0.016 µM
Ratio IC50 [5]: 50

C=C1C(=O)O[C@@H]2[C@@H]3[C@@H](CCC34CC4)C3(CC[C@@H]12)CC3
viability at 10 µM [6]: 6.5%
viability at 50 µM (KG-1a [7]): 1.32%
viability at 5 µM [8]: 42.2%
Activity (KG-1a [9]): 6.54%
Activity (KG-1a [10]): 3.51%
Activity [11]: Active
viability at 10 µM (KG-1a [12]): 66.5%
IC50 [1]: 6.7 µM
Activity (KG-1a [13]): 4.71%
IC50 [14]: > 50 µM
viability at 10 µM [15]: 0.46%
Activity (KG-1a [16]): 44.4%
viability at 5 µM (KG-1a [17]): 82.5%
viability at 5 µM [18]: 24.2%
Activity (KG-1a [19]): 1.05%
solubility [20]: Insoluble
viability at 10 µM [21]: 1.9%
IC50 [2]: 7.7 µM
Activity (KG-1a [22]): 49%
Activity [23]: Active
Activity (KG-1a [24]): 49.9%
Activity (KG-1a [25]): 0.21%
IC50 (K562): 7 µM
Activity (KG-1a [26]): 3.05%
viability at 5 µM [27]: 50.7%
Activity (KG-1a [28]): 9.13%
Activity (KG-1a [29]): 45%
viability at 20 µM (KG-1a [30]): 2%
Activity [31]: Active
Activity (KG-1a [32]): 23.3%
Activity [33]: Active
IC50 [3]: 7.6 µM
IC50 [4]: 5.7 µM

CN(C)C[C@@H]1C(=O)O[C@H]2[C@H]1CCC1(CC1)[C@@H]1CCC3(CC3)[C@H]21.O=C(O)/C=C/C(=O)O
TGI (KG-1a [34]): Active
Activity (Mus musculus): Non-toxic
Activity (KG-1a [35]): Active

C=C1CC[C@H]2C(=C)CC[C@H]3C(=C)C(=O)O[C@@H]3[C@@H]12 [DEHYDROCOSTUSLACTONE]
IC50 [1]: 5.1 µM
IC50 [2]: 6.6 µM
IC50 (K562): 5.3 µM
IC50 [3]: 10.5 µM
IC50 [4]: 3.7 µM
